According to article PMC5514153, “Targeting PTPRZ inhibits stem cell-like properties and tumorigenicity in glioblastoma cells” (Scientific Reports, 2017):
pIC50: −log10 of the molar value.

Legend:
hPTPRM = molecular target: T1, hPTPRM (Homo sapiens, UniProt P28827); test: In vitro PTPase assay (DiFMUP), PTPRM; assay type: biochemical; settings: 60-min preincubation
T1 construct: Recombinant proteins corresponding to the entire intracellular regions (ICRs) of PTPRZ1, PTPRA, and PTPRM; made in house; host or cells: baculovirus-silkworm expression system
Protocol: Figure 4 NAZ2329, an allosteric inhibitor of R5 RPTP subfamily members. (A) Structure of NAZ2329. (B) Effect of preincubation of NAZ2329 on its inhibitory activity against PTPRZ. Recombinant human PTPRZ1 enzyme (the whole intracellular region) was premixed with NAZ2329 for the indicated times and followed by addition of a fluorogenic DiFMUP (non-specific PTP substrate, 6,8-difluoro-4-methylumbiliferyl phosphate) to measure PTP inhibitory activity. (C) Time dependence. The PTPRZ1 enzyme was added to the inhibitor–substrate mixture, and the inhibitory activity was determined at each time point relative to the vehicle control. (D) Reversibility of inhibition. […] The mixture was then 20-fold diluted, and recovered PTP activity was expressed as the relative activity compared with the vehicle-treated enzyme. […] PTPRZ1 enzymes were preincubated with NAZ2329 for 60 min, and the PTP activity was measured using DiFMUP. […]
Recombinant proteins corresponding to the entire intracellular regions (ICRs) of PTPRZ1, PTPRA, and PTPRM were expressed using a baculovirus-silkworm expression system, and purified as described. The ICRs of PTPRG, PTPRS, and PTPRB and the catalytic domains of PTPN1 and PTPN6 were expressed as glutathione-S-transferase (GST) fusion proteins from each pGEX plasmid in Escherichia coli strain BL21 (ref. [6]). […]

hPTPRZ1 (D1) = molecular target: T2, hPTPRZ1 (D1) (Homo sapiens, UniProt P23471); test: In vitro PTPase assay (DiFMUP), PTPRZ1 D1 domain; assay type: biochemical; settings: first PTP domain fragment
T2 construct: human PTPRZ1-D1 (amino acid residues, 1,698-2,000)

C6 xenograft = test: C6 subcutaneous xenograft nude mouse model; assay type: in vivo; settings: nude mice, i.p. twice per week; NAZ2329 45 µmol (22.5 mg)/kg, TMZ 50 mg/kg; vehicle 17 days
Protocol: Figure 10 Antitumor effects of NAZ2329 on the C6 mouse xenograft model. (A) Nude mice were subcutaneously implanted with C6 cells (5 × 10^6 cells), and tumor size was monitored until the criteria were met (>150 mm^3). At this time, mice were randomly divided into 4 treatment groups. DMSO as the vehicle control (n = 7), NAZ2329 (45 µmol (22.5 mg)/kg body weight, n = 9), temozolomide (TMZ, 50 mg/kg, n = 9), and the combination of NAZ2329 (45 µmol/kg) with TMZ (50 mg/kg) (n = 9) were administered intraperitoneally twice per week until the humane endpoint (>3,000 mm^3 tumor size or 40 days after the treatment). Tumor growth in each animal and the number of days required to reach a tumor volume of 3,000 mm^3 are shown in the graph. Five mice were sacrificed due to tumor necrosis (shown by gray symbols in the graph), and two mice unexpectedly died suddenly during the observation period (black symbols in the graph).
Parental or Ptprz-knockdown C6 cells (5 × 10^6 cells) suspended in a volume of 100 µl were subcutaneously injected into the left hind limbs of BALB/c-nu/nu mice (females, 4 weeks old mice were purchased from Japanese Charles River Co. Ltd.). Tumor growth was measured with calipers and calculated by the formula: volume = length × width × width × 0.5, as previously described. The drug treatment initiated when the tumor size reached 150 mm^3. […]

T2 sequence (P23471 1698-2000 limits assumed): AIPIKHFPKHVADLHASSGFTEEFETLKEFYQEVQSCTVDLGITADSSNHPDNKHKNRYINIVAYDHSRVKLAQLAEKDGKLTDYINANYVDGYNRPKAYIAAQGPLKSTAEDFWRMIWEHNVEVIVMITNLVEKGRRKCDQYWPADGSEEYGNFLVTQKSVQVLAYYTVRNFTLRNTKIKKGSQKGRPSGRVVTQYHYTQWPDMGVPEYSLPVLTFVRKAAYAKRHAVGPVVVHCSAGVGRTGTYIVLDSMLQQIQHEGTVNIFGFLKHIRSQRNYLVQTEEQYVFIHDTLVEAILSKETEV
T1 sequence (P28827 765-1452 limits assumed): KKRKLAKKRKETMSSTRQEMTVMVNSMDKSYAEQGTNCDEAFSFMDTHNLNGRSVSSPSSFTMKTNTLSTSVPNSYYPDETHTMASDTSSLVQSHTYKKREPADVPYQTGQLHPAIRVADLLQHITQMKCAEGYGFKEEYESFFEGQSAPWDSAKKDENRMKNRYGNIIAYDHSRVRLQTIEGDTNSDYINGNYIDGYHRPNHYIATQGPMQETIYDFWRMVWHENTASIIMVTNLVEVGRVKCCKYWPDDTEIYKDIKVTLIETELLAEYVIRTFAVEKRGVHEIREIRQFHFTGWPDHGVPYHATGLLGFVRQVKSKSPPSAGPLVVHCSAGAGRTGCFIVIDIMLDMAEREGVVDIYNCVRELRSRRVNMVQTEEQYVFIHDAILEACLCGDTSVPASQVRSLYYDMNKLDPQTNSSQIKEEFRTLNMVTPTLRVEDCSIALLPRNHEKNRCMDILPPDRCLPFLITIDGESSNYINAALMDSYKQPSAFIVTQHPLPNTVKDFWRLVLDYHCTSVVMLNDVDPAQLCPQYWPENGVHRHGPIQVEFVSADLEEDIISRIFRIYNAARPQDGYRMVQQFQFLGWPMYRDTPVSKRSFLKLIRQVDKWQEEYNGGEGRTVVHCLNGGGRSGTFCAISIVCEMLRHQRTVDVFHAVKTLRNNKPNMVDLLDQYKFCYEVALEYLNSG

CCOc1ccc(C(F)(F)F)cc1CSc1ccsc1C(=O)NS(=O)(=O)c1ccccc1 [NAZ2329]
pIC50 (hPTPRM): 4.25
pIC50 (hPTPRZ1 (D1)): 5.96
median day for the tumor size to reach 3,000 mm^3 (C6 xenograft): 25 days
